Measurements: PubChem BioAssay AID1845198 (Molecular Pharmacology Branch, DTP, NCI, 2023)

Test system: 425362-245-T-J1 tumor spheroids, viability % test/control
Assay: Anticancer human tumor 425362-245-T-J1 patient-derived melanoma cell line growth inhibition
Conditions: spheroids with HUVEC and MSC; for IC50: curve of first compound; for viability, T/C: stronger effect = lower value
Procedure, shortened: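 Single agents and combinations were tested on spheroids built from tumor cells plus HUVEC and hMSC, at half-log dilutions starting at or near clinical Cmax, else 10 microM; final DMSO 0.25% (v/v).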

[1] = second compound 30 pM, first compound 0.00949 µM
[2] = second compound 30 pM, first compound 0.03 µM
[3] = second compound 30 pM, first compound 0.0949 µM
[4] = second compound 30 pM, first compound 0.3 µM
[5] = second compound 30 pM, first compound 0.949 µM
[6] = second compound 30 pM, first compound 3 µM
[7] = second compound 94.9 pM, first compound 0.00949 µM
[8] = second compound 94.9 pM, first compound 0.03 µM
[9] = second compound 94.9 pM, first compound 0.0949 µM
[10] = second compound 94.9 pM, first compound 0.3 µM
[11] = second compound 94.9 pM, first compound 0.949 µM
[12] = second compound 94.9 pM, first compound 3 µM
[13] = second compound 0.0003 µM, first compound 0.00949 µM
[14] = second compound 0.0003 µM, first compound 0.03 µM
[15] = second compound 0.0003 µM, first compound 0.0949 µM
[16] = second compound 0.0003 µM, first compound 0.3 µM
[17] = second compound 0.0003 µM, first compound 0.949 µM
[18] = second compound 0.0003 µM, first compound 3 µM
[19] = second compound 0.000949 µM, first compound 0.00949 µM
[20] = second compound 0.000949 µM, first compound 0.03 µM
[21] = second compound 0.000949 µM, first compound 0.0949 µM
[22] = second compound 0.000949 µM, first compound 0.3 µM
[23] = second compound 0.000949 µM, first compound 0.949 µM
[24] = second compound 0.000949 µM, first compound 3 µM
[25] = second compound 0.003 µM, first compound 0.00949 µM
[26] = second compound 0.003 µM, first compound 0.03 µM
[27] = second compound 0.003 µM, first compound 0.0949 µM
[28] = second compound 0.003 µM, first compound 0.3 µM
[29] = second compound 0.003 µM, first compound 0.949 µM
[30] = second compound 0.003 µM, first compound 3 µM
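Note: spheroids exposed to agents for 7 days.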
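Throughout, for viability, T/C: 100% = DMSO vehicle control viability.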

Row | Compound | IC50 (second compound 30 pM) [nM] | IC50 (second compound 94.9 pM) [nM] | IC50 (second compound 0.0003 µM) [nM] | IC50 (second compound 0.000949 µM) [nM] | IC50 (second compound 0.003 µM) [nM] | viability, T/C [3] [%] | viability, T/C [4] [%] | viability, T/C [5] [%] | viability, T/C [6] [%] | viability, T/C [9] [%] | viability, T/C [10] [%] | viability, T/C [11] [%] | viability, T/C [12] [%] | viability, T/C [15] [%] | viability, T/C [16] [%] | viability, T/C [17] [%] | viability, T/C [18] [%] | viability, T/C [21] [%] | viability, T/C [22] [%] | viability, T/C [23] [%] | further results
1 | CNCc1ccc(-c2cc(-c3nc(-c4ccc(S(=O)(=O)C(C)C)cc4)cnc3N)on2)cc1 + COc1cc2c(cc1O)CCNC21CSC2c3c(OC(C)=O)c(C)c4c(c3C(COC1=O)N1C(O)C3Cc5cc(C)c(OC)c(O)c5C(C21)N3C)OCO4 | 161 | 131 | < 9.49 | < 9.49 | < 9.49 | 85.1 | 8.53 | 2.32 | 0.13 | 68.1 | 3.99 | 1.51 | 0.15 | 16.4 | 1.69 | 0.79 | 0.15 | 0.27 | 0.35 | 0.13 | viability, T/C [1]: 108%; viability, T/C [2]: 113%; viability, T/C [7]: 96.3%; viability, T/C [8]: 103%; viability, T/C [13]: 43.7%; viability, T/C [14]: 37%; viability, T/C [19]: 0.41%; viability, T/C [20]: 0.41%; viability, T/C [24]: 0.17%; viability, T/C [25]: 0.26%; viability, T/C [26]: 0.28%; viability, T/C [27]: 0.27%; viability, T/C [28]: 0.22%; viability, T/C [29]: 0.2%; viability, T/C [30]: 0.27%
2 | Cc1sc2c(c1C)C(c1ccc(Cl)cc1)=NC(CC(=O)Nc1ccc(O)cc1)c1nnc(C)n1-2 (stereo not given) + COc1cc2c(cc1O)CCNC21CSC2c3c(OC(C)=O)c(C)c4c(c3C(COC1=O)N1C(O)C3Cc5cc(C)c(OC)c(O)c5C(C21)N3C)OCO4 | 69.4 | 67.7 | 11.2 | < 9.49 | < 9.49 | 46 | 14.2 | 1.75 | 1.2 | 40.3 | 5.16 | 2.11 | 0.76 | 17.1 | 3.14 | 0.36 | 0.19 | 0.1 | 0.04 | 0.04 | viability, T/C [1]: 98.3%; viability, T/C [2]: 69.6%; viability, T/C [7]: 94.7%; viability, T/C [8]: 76.6%; viability, T/C [13]: 52.1%; viability, T/C [14]: 37.9%; viability, T/C [19]: 0.26%; viability, T/C [20]: 0.2%; viability, T/C [24]: 0.14%; viability, T/C [25]: 0.25%; viability, T/C [26]: 0.27%; viability, T/C [27]: 0.18%; viability, T/C [28]: 0.17%; viability, T/C [29]: 0.18%; viability, T/C [30]: 0.29%
3 | Cn1ncnc1[C@H]1c2n[nH]c(=O)c3cc(F)cc(c23)N[C@@H]1c1ccc(F)cc1 + COc1cc2c(cc1O)CCNC21CSC2c3c(OC(C)=O)c(C)c4c(c3C(COC1=O)N1C(O)C3Cc5cc(C)c(OC)c(O)c5C(C21)N3C)OCO4 | 12.5 | < 9.49 | < 9.49 | < 9.49 | < 9.49 | 19.6 | 13.2 | 6.87 | 1.96 | 14.8 | 9.34 | 4.06 | 1.23 | 3.81 | 4.9 | 1.34 | 0.77 | 0.27 | 0.14 | 0.13 | viability, T/C [1]: 56.7%; viability, T/C [2]: 30.3%; viability, T/C [7]: 42.5%; viability, T/C [8]: 20%; viability, T/C [13]: 25.2%; viability, T/C [14]: 6.95%; viability, T/C [19]: 0.45%; viability, T/C [20]: 0.42%; viability, T/C [24]: 0.22%; viability, T/C [25]: 0.34%; viability, T/C [26]: 0.37%; viability, T/C [27]: 0.33%; viability, T/C [28]: 0.35%; viability, T/C [29]: 0.3%; viability, T/C [30]: 0.36%
4 | O=C(c1cc(Cc2n[nH]c(=O)c3ccccc23)ccc1F)N1CCN(C(=O)C2CC2)CC1 + COc1cc2c(cc1O)CCNC21CSC2c3c(OC(C)=O)c(C)c4c(c3C(COC1=O)N1C(O)C3Cc5cc(C)c(OC)c(O)c5C(C21)N3C)OCO4 | 2110 | 1420 | < 94.9 | < 94.9 | < 94.9 | 87.2 | 93.6 | 67.9 | 43.4 | 83.1 | 79.2 | 56.2 | 36.3 | 32.6 | 35.5 | 22.8 | 7.06 | 0.47 | 0.29 | 0.17 | viability, T/C (second compound 30 pM, first compound 9.49 µM): 10.1%; viability, T/C (second compound 30 pM, first compound 30 µM): 6.76%; viability, T/C (second compound 94.9 pM, first compound 9.49 µM): 5.46%; viability, T/C (second compound 94.9 pM, first compound 30 µM): 4.13%; viability, T/C (second compound 0.0003 µM, first compound 9.49 µM): 1.54%; viability, T/C (second compound 0.0003 µM, first compound 30 µM): 1.07%; viability, T/C [24]: 0.09%; viability, T/C (second compound 0.000949 µM, first compound 9.49 µM): 0.04%; viability, T/C (second compound 0.000949 µM, first compound 30 µM): 0.16%; viability, T/C [27]: 0.3%; viability, T/C [28]: 0.32%; viability, T/C [29]: 0.26%; viability, T/C [30]: 0.14%; viability, T/C (second compound 0.003 µM, first compound 9.49 µM): 0.15%; viability, T/C (second compound 0.003 µM, first compound 30 µM): 0.3%
